Results published in ChEMBL document CHEMBL4043203, “Synthesis and biological evaluations of new nitric oxide-anti-inflammatory drug hybrids” (Bioorg Med Chem Lett, 2017).

Key:
[1] = target: T1, Prostaglandin G/H synthase 1 (Ovis aries, UniProt P05979); assay: Inhibition of ovine COX1 using arachidonic acid as substrate by colorimetric enzyme immune assay
T1 sequence (P05979 whole entry): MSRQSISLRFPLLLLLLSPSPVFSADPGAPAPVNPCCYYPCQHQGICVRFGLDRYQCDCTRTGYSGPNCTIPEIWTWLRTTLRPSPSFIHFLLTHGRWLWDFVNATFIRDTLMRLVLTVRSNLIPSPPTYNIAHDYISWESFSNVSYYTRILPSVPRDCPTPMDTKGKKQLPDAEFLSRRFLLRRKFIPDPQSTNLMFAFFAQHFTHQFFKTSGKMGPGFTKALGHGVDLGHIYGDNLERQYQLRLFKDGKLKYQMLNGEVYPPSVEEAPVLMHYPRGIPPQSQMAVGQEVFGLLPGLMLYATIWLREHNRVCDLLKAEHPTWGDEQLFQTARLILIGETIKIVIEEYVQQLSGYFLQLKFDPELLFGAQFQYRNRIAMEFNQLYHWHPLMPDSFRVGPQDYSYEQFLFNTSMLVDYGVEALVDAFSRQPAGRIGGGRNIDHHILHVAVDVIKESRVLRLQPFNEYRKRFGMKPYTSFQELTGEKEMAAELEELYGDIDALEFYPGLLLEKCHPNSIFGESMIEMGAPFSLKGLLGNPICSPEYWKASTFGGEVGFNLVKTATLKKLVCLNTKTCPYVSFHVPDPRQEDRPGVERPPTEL

[2] = target: T2, Prostaglandin G/H synthase 2 (Homo sapiens, UniProt P35354); assay: Inhibition of recombinant human COX2 using arachidonic acid as substrate by colorimetric enzyme immune assay
T2 sequence (P35354 whole entry): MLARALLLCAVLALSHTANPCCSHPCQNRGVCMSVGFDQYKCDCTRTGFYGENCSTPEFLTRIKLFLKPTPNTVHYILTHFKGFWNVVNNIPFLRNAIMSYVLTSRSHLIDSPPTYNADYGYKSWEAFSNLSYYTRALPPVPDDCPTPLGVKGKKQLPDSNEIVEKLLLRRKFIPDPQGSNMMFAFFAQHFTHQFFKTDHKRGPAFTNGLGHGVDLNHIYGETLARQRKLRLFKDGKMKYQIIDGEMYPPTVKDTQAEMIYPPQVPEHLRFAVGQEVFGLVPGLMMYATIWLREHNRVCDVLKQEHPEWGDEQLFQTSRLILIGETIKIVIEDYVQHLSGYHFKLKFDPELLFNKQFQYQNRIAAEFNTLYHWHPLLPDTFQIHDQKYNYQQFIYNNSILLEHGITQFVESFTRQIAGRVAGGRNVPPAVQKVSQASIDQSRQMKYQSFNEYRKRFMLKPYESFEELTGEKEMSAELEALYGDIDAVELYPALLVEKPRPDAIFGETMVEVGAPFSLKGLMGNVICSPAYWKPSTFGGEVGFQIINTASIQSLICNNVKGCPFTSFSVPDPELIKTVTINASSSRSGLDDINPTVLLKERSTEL

[3] = Selectivity index, ratio of IC50 for ovine COX1 to IC50 for recombinant human COX2
Rattus norvegicus [4] = assay: Antiinflammatory activity in Wistar albino rat assessed as inhibition of carrageenan-induced left hind paw edema at 50 mg/kg, po pretreated for 1 hr followed by carrageenan addition measured after 2 hrs relative to control; assay type: functional; details: Wister
Rattus norvegicus [5] = assay: Antiinflammatory activity in po dosed Wistar albino rat assessed as inhibition of carrageenan-induced left hind paw edema pretreated for 1 hr followed by carrageenan addition measured after 2 hrs; assay type: functional; details: Wister
Rattus norvegicus [6] = assay: Antiinflammatory activity in Wistar albino rat assessed as serum nitric oxide level at 50 mg/kg, po treated for 3 successive days measured at 2 hrs post last dose by Griess reagent based colorimetric assay (reference value: 147.90 +/- 31.76 micromol/L); assay type: functional, Wister
Rattus norvegicus [7] = assay: Ulcerogenic activity in Wistar albino rat assessed as ulcer index at 50 mg/kg, po treated for 3 successive days measured at 2 hrs post last dose; assay type: toxicity, organism-based, Wister; details: in vivo
Rattus norvegicus [8] = assay: Ulcerogenic activity in Wistar albino rat assessed as relative ulcerogenicity at 50 mg/kg, po treated for 3 successive days measured at 2 hrs post last dose relative to celecoxib; assay type: toxicity, organism-based, Wister; details: in vivo
Rattus norvegicus [9] = organism: Rattus norvegicus; assay: Ulcerogenic activity in Wistar albino rat assessed as loss of mucous in stomach after 48 hrs by hematoxylin and eosin staining based microscopic analysis; assay type: toxicity, Wister; details: in vivo
Rattus norvegicus [10] = organism: Rattus norvegicus; assay: Ulcerogenic activity in Wistar albino rat assessed as minimum vasocapillary dilation in stomach after 48 hrs by hematoxylin and eosin staining based microscopic analysis; assay type: toxicity, Wister; details: in vivo
Rattus norvegicus [11] = organism: Rattus norvegicus; assay: Ulcerogenic activity in Wistar albino rat assessed as lesion in stomach after 48 hrs by hematoxylin and eosin staining based microscopic analysis; assay type: toxicity, Wister; details: in vivo
Rattus norvegicus [12] = organism: Rattus norvegicus; assay: Ulcerogenic activity in Wistar albino rat assessed as abdominal perforation in stomach after 48 hrs by hematoxylin and eosin staining based microscopic analysis; assay type: toxicity, Wister; details: in vivo

SMILES | IC50 [1] [µM] | IC50 [2] [µM] | Ratio IC50 [3] | inhibition in vivo at 50 mg/kg (Rattus norvegicus [4]) [%] | ED50 (Rattus norvegicus [5]) [mg/kg] | Activity (Rattus norvegicus [6]) [µmol/L] | UI (Rattus norvegicus [7]) | fold change (FC) (Rattus norvegicus [8]) | Activity (Rattus norvegicus [9]) | Activity (Rattus norvegicus [10]) | Activity (Rattus norvegicus [11]) | Activity (Rattus norvegicus [12])
Cc1c(-c2nc3ccccc3nc2N=O)cnn1-c1ccccc1 | 9.2 | 6.6 | 1.39 | 59 | 40 | 140.1 | 3 | 9.09 | – | – | – | –
Cc1c(C(=O)/C(Cl)=N/O)cnn1-c1ccccc1 | 9.8 | 2.33 | 4.2 | 50 | 50 | 315.5 | 5 | 15.15 | Non-Toxic | Non-Toxic | – | –
Cc1c(-c2c(N=O)nc3ncccn23)cnn1-c1ccccc1 | 6.8 | 1.55 | 4.38 | 62 | 38 | 386.3 | 0.33 | 1 | – | Non-Toxic | Non-Toxic | –
Cc1c(C2=C(N=O)Nc3ccccc3N2)cnn1-c1ccccc1 | 9.22 | 1.61 | 5.77 | 57 | 40 | 370.1 | 2.33 | 7.06 | – | – | – | –
Cc1c(C(=O)c2nocc2C(=O)c2ccccc2)cnn1-c1ccccc1 | 11.1 | 1.49 | 7.44 | 41 | 61 | 372 | 0.33 | 1 | – | – | – | –
Cc1ccc(-c2nnc(-c3cnn(-c4ccccc4)c3C)c3nocc23)cc1 | 10.2 | 1.28 | 7.94 | 54 | 46 | 273.1 | 0.33 | 1 | – | – | – | –
Cc1ccc(C(=O)c2conc2C(=O)c2cnn(-c3ccccc3)c2C)cc1 | 4.52 | 1.12 | 4.03 | 45 | 56 | 346.5 | 1.33 | 4.03 | – | – | – | –
Cc1c(-c2nnc(-c3ccccc3)c3conc23)cnn1-c1ccccc1 | 5.88 | 0.78 | 7.84 | 50 | 50 | 314.4 | 1.76 | 5.06 | – | – | – | –
Cc1ccc(-c2cc(C(F)(F)F)nn2-c2ccc(S(N)(=O)=O)cc2)cc1 [CELECOXIB] | – | – | – | 65 | 35 | – | 0.33 | – | – | Non-Toxic | Non-Toxic | –
Cc1c(C(=O)c2conc2C(=O)c2cnn(-c3ccccc3)c2C)cnn1-c1ccccc1 | 9.11 | 4.5 | 2.02 | – | – | 286.2 | 0.33 | 1 | – | – | – | –
Cc1c(C2=C(N=O)Oc3cccnc3N2)cnn1-c1ccccc1 | 5.6 | 1.22 | 4.59 | 64 | 35 | 415.3 | 0.33 | 1 | – | – | – | –
Cc1c(C2=C(N=O)Sc3ccccc3N2)cnn1-c1ccccc1 | 7.72 | 1.83 | 4.21 | 56 | 45 | 348.3 | 0.33 | 1 | – | – | – | –
Cc1c(C2=C(N=O)Oc3ccccc3N2)cnn1-c1ccccc1 | 8.6 | 4.2 | 2.04 | 56 | 45 | 335.3 | 2 | 6.06 | – | – | – | –
Cc1c(-c2nc3ccccn3c2N=O)cnn1-c1ccccc1 | 9.2 | 1.75 | 5.25 | 65 | 35 | 402.6 | 2 | 6.06 | – | – | – | –
COc1ccc2c(c1)c(CC(=O)O)c(C)n2C(=O)c1ccc(Cl)cc1 [INDOMETHACIN] | – | – | – | – | – | – | – | – | Toxic | – | – | Toxic
Cc1c(-c2nnc(-c3cnn(-c4ccccc4)c3C)c3nocc23)cnn1-c1ccccc1 | 10.1 | 6.88 | 1.46 | – | – | 318.8 | 1.33 | 4.03 | – | Non-Toxic | Non-Toxic | –
